Test results reported in patent US20160297768A1, “NOVEL IMIDAZOLE DERIVATIVES AND THERAPEUTIC USE THEREOF” (INDUSTRY-ACA-DEMIC COORPERATION FOUNDATION, YONSEI …, priority 2013, published 2016).

Columns and labels:
[1] = system: A549 cells; experiment: Apoptotic activity by MTT analysis, A549 cells; type: cell-based; settings: 15 μM of the compound, mean±standard deviation; for cytotoxicity at 15 µM: Homo sapiens, A549, 12 h, read-out: Apoptosis (%) A549 cells; for Apoptosis (%) A549 cells: 12 hours
Method: (§1) Lung cancer cells (A549), colorectal cancer cells (HCT116), HeLa cells, liver cancer cells (HepG2), T-cell leukemia cells (Jurkat), myeloid leukemia cells (K562), breast cancer cells (MCF-7 and MDA-MB-231) and myelocytic leukemia cells ([…]) were obtained from the American Type Culture Collection (ATCC), and cultured in 10% fetal bovine serum (FBS), 50 units/mL penicillin and 50 units/mL streptomycin-added RPMI 1640 (Invitrogen). The cells were maintained in a humidified 37° C., 5% CO2 atmosphere. The anticancer activity was detected by MTT analysis. Each type of cancer cells were plated in triplicate in a 96-well microtiter plate, and cultured at 37° C. for 24 hours. The cells were treated with each of the compounds prepared above at 37° C. for 12 hours. After the culturing of the cells, 10 μL of an MTT reagent ((3-[4,5-dimethyl-2-thiazolyl]-2,5-diphenyl-2H-tetrazoliumbromide) was added to each well, and cultured for 3.5 hours. The absorbance of each sample was detected using a UV microplate reader (SpectraMax 340PC 384, Molecular Devices) at 570 nm. The detection results were measured as a mean value. The effect of each compound on apoptosis is shown in Table 1.
(§2) The A549 and HeLa cells were treated with 15 μM of the compound for 12 hours. The apoptosis was detected using MTT (mean±standard deviation).

[2] = system: HeLa cells; experiment: Apoptotic activity by MTT analysis, HeLa cells; type: cell-based; settings: 15 μM of the compound, mean±standard deviation; for cytotoxicity at 15 µM: Homo sapiens, HeLa, 12 h, read-out: Apoptosis (%) HeLa cells; for Apoptosis (%) HeLa cells: 12 hours
Method: as §1, §2

Row | SMILES | cytotoxicity at 15 µM [1] [%] | cytotoxicity at 15 µM [2] [%] | Apoptosis (%) A549 cells [1] [%] | Apoptosis (%) HeLa cells [2] [%]
1 | NCCOCCOCCNC(=O)c1ccc(Cn2c(-c3cccc(C(F)(F)F)c3)nc(-c3ccc(Br)cc3)c2-c2ccc(Br)cc2)cc1 [Example 2, N-(2-(2-(2-aminoethoxy)ethoxy)ethyl)-4-((4,5-bis(4-bromophenyl)-2-(3-(trifluoromethyl)phenyl)-1H-imidazole-1-yl)methyl)benzamide] | 80 ± 1.16 | 88 ± 1.39 |  | 
2 | COc1cccc(-c2nc(-c3cccc(C(F)(F)F)c3)n(Cc3ccc(C(=O)NCCOCCOCCN)cc3)c2-c2cccc(OC)c2)c1 [Example 11, N-(2-(2-(2-aminoethoxy)ethoxy)ethyl)-4-((4,5-bis(3-methoxyphenyl)-2-(3-(trifluoromethyl)phenyl)-1H-imidazole-1-yl)methyl)benzamide] | 81 ± 1.26 | 87 ± 1.55 |  | 
3 | CN(C)c1ccc(-c2nc(-c3cccc(C(F)(F)F)c3)n(Cc3ccc(C(=O)NCCOCCOCCN)cc3)c2-c2ccc(N(C)C)cc2)cc1 [Example 27, N-(2-(2-(2-aminoethoxy)ethoxy)ethyl)-4-((4,5-bis(4-(dimethylamino)phenyl)-2-(3-(trifluoromethyl)phenyl)-1H-imidazole-1-yl)methyl)benzamide] | 76 ± 0.98 | 86 ± 0.38 |  | 
4 | Cc1ccc(-c2nc(-c3cccc(C(F)(F)F)c3)n(Cc3ccc(C(=O)NCCOCCOCCN)cc3)c2-c2ccc(C)cc2)cc1 [Example 35, N-(2-(2-(2-aminoethoxy)ethoxy)ethyl)-4-((4,5-ditolyl-2-(3-(trifluoromethyl)phenyl)-1H-imidazole-1-yl)methyl)benzamide] | 64 ± 1.36 | 87 ± 1.68 |  | 
5 | COc1ccc(-c2nc(-c3ccc(C(F)(F)F)cc3)n(Cc3ccc(C(=O)NCCOCCOCCN)cc3)c2-c2ccc(OC)cc2)cc1 [Example 43, N-(2-(2-(2-aminoethoxy)ethoxy)ethyl)-4-((4,5-bis(4-methoxyphenyl)-2-(4-(trifluoromethyl)phenyl)-1H-imidazole-1-yl)methyl)benzamide] | 36 ± 0.86 | 38 ± 0.38 |  | 
6 | COc1ccc(-c2nc(-c3ccc(C(F)(F)F)cc3C(F)(F)F)n(Cc3ccc(C(=O)NCCOCCOCCN)cc3)c2-c2ccc(OC)cc2)cc1 [Example 44, N-(2-(2-(2-aminoethoxy)ethoxy)ethyl)-4-((2-(2,4-bis(trifluoromethyl)phenyl)-4,5-bis(4-methoxyphenyl)-1H-imidazole-1-yl)methyl)benzamide] | 38 ± 0.68 | 31 ± 0.28 |  | 
7 | COc1ccc(-c2nc(-c3cc(C)cc(C)c3)n(Cc3ccc(C(=O)NCCOCCOCCN)cc3)c2-c2ccc(OC)cc2)cc1 [Example 45, N-(2-(2-(2-aminoethoxy)ethoxy)ethyl)-4-((2-(3,5-dimethylphenyl)-4,5-bis(4-methoxyphenyl)-1H-imidazole-1-yl)methyl)benzamide] | 37 ± 0.5 | 34 ± 1.61 |  | 
8 | COc1ccc(-c2nc(-c3cc(OC)cc(OC)c3)n(Cc3ccc(C(=O)NCCOCCOCCN)cc3)c2-c2ccc(OC)cc2)cc1 [Example 46, N-(2-(2-(2-aminoethoxy)ethoxy)ethyl)-4-((2-(3,5-dimethoxyphenyl)-4,5-bis(4-methoxyphenyl)-1H-imidazole-1-yl)methyl)benzamide] | 37 ± 1.34 | 48 ± 0.28 |  | 
9 | COC(=O)c1cc(C(=O)OC)cc(-c2nc(-c3ccc(OC)cc3)c(-c3ccc(OC)cc3)n2Cc2ccc(C(=O)NCCOCCOCCN)cc2)c1 [Example 47, Dimethyl 5-(1-(4-(2-(2-(2-aminoethoxy)ethoxy)ethylcarbamoyl)benzyl)-4,5-bis(4-methoxyphenyl)-1H-imidazole-2-yl)isophthalate] | 37 ± 0.86 | 40 ± 0.7 |  | 
10 | COc1ccc(-c2nc(-c3cc(OC)c(OC)c(OC)c3)n(Cc3ccc(C(=O)NCCOCCOCCN)cc3)c2-c2ccc(OC)cc2)cc1 [Example 48, N-(2-(2-(2-aminoethoxy)ethoxy)ethyl)-4-((4,5-bis(4-methoxyphenyl)-2-(3,4,5-trimethoxyphenyl)-1H-imidazole-1-yl)methyl)benzamide] | 23 ± 0.68 | 30 ± 0.76 |  | 
11 | NCCOCCOCCNC(=O)c1ccc(Cn2c(-c3cc(C(F)(F)F)cc(C(F)(F)F)c3)nc(-c3ccc(Cl)cc3)c2-c2ccc(Cl)cc2)cc1 [Example 49, N-(2-(2-(2-aminoethoxy)ethoxy)ethyl)-4-((2-(3,5-bis(trifluoromethyl)phenyl)-4,5-bis(4-chlorophenyl)-1H-imidazole-1-yl)methyl)benzamide] |  |  | 0 ± 1.26 | 26 ± 0.38
12 | COc1ccc(-c2nc(-c3cccc(C(F)(F)F)c3)n(Cc3ccc(C(=O)NCCOCCOCCN)cc3)c2-c2ccc(OC)cc2F)c(F)c1 [Example 68, N-(2-(2-(2-aminoethoxy)ethoxy)ethyl)-4-((4,5-bis(2-fluoro-4-methoxyphenyl)-2-(3-(trifluoromethyl)phenyl)-1H-imidazole-1-yl)methyl)benzamide] | 58 ± 1.48 | 89 ± 0.28 |  | 
13 | COC(=O)c1cc(C(=O)OC)cc(-c2nc(-c3ccc(OC)cc3)c(-c3ccc(OC)cc3)n2Cc2ccc(C(=O)NCCOCCOCCN)cc2)c1 [Example 100, Dimethyl 5-(1-(4-(2-(2-(2-aminoethoxy)ethoxy)ethylcarbamoyl)benzyl)-4,5-bis(4-methoxyphenyl)-1H-imidazole-2-yl)isophthalate] |  |  | 31 ± 1.78 | 37 ± 1.54
14 | COc1ccc(-c2nc(-c3cc(OC)c(OC)c(OC)c3)n(Cc3ccc(C(=O)NCCOCCOCCN)cc3)c2-c2ccc(OC)cc2)cc1 [Example 102, N-(2-(2-(2-aminoethoxy)ethoxy)ethyl)-4-((4,5-bis(4-methoxyphenyl)-2-(3,4,5-trimethoxyphenyl)-1H-imidazole-1-yl)methyl)benzamide] |  |  | 25 ± 1.92 | 29 ± 2.30
15 | NCCOCCOCCNC(=O)c1ccc(Cn2c(-c3cc(C(F)(F)F)cc(C(F)(F)F)c3)nc(-c3ccc4c(c3)OCO4)c2-c2ccc3c(c2)OCO3)cc1 [Example 103, N-(2-(2-(2-aminoethoxy)ethoxy)ethyl)-4-((4,5-di(benzo[d][1,3]dioxol-5-yl)-2-(3,5-bis(trifluoromethyl)phenyl)-1H-imidazole-1-yl)methyl)benzamide] | 0 | 0 |  | 
16 | NCCOCCOCCNC(=O)c1ccc(Cn2c(-c3cc(C(F)(F)F)cc(C(F)(F)F)c3)nc(-c3ccc4ccccc4c3)c2-c2ccc3ccccc3c2)cc1 [Example 105, N-(2-(2-(2-aminoethoxy)ethoxy)ethyl)-4-((2-(3,5-bis(trifluoromethyl)phenyl)-4,5-di(naphthalene-2-yl)-1H-imidazole-1-yl)methyl)benzamide] | 39 ± 0.48 | 49 ± 0.41 |  | 
17 | NCCOCCOCCNC(=O)c1ccc(Cn2c(-c3cc(C(F)(F)F)cc(C(F)(F)F)c3)nc(-c3ccc4ncccc4c3)c2-c2ccc3ncccc3c2)cc1 [Example 106, N-(2-(2-(2-aminoethoxy)ethoxy)ethyl)-4-((2-(3,5-bis(trifluoromethyl)phenyl)-4,5-di(quinoline-6-yl)-1H-imidazole-1-yl)methyl)benzamide] | 38 ± 1.28 | 42 ± 0.76 |  | 
18 | COc1ccc(-c2nc(-c3cc(O)cc(O)c3)n(Cc3ccc(C(N)=O)cc3)c2-c2ccc(OC)cc2)cc1 [Example 107, 4-((2-(3,5-dihydroxyphenyl)-4,5-bis(4-methoxyphenyl)-1H-imidazole-1-yl)methyl)benzamide] | 16 ± 0.3 | 0 |  | 
19 | COc1ccc(-c2nc(-c3cc(C#N)cc(C#N)c3)n(Cc3ccc(C(N)=O)cc3)c2-c2ccc(OC)cc2)cc1 [Example 108, 4-((2-(3,5-dicyanophenyl)-4,5-bis(4-methoxyphenyl)-1H-imidazole-1-yl)methyl)benzamide] | 2 ± 0.8 | 12 ± 1.26 |  | 
20 | COc1ccc(-c2nc(-c3cc(C(F)(F)F)cc(C(F)(F)F)c3)n(Cc3ccc(C(=O)NO)cc3)c2-c2ccc(OC)cc2)cc1 [Example 117, 4-((2-(3,5-bis(trifluoromethyl)phenyl)-4,5-bis(4-methoxyphenyl)-1H-imidazole-1-yl)methyl)-N-hydroxybenzamide] | 43 ± 0.52 | 40 ± 1.67 |  | 
21 | COc1ccc(-c2nc(-c3cc(C(F)(F)F)cc(C(F)(F)F)c3)n(Cc3ccc(C(N)=S)cc3)c2-c2ccc(OC)cc2)cc1 [Example 118, 4-((2-(3,5-bis(trifluoromethyl)phenyl)-4,5-bis(4-methoxyphenyl)-1H-imidazole-1-yl)methyl)benzothioamide] | 50 ± 0.41 | 50 ± 1.66 |  | 
22 | CNC(=O)c1ccc(Cn2c(-c3cc(C(F)(F)F)cc(C(F)(F)F)c3)nc(-c3ccc(OC)cc3)c2-c2ccc(OC)cc2)cc1 [Example 119, 4-((2-(3,5-bis(trifluoromethyl)phenyl)-4,5-bis(4-methoxyphenyl)-1H-imidazole-1-yl)methyl)-N-methylbenzamide] | 39 ± 0.76 | 90 ± 1.73 |  | 
